Read-outs that look alike come from different tables or passages of the source.

Here are results for 1 compound from US20230257373A1, “QUORUM SENSING INHIBITORS AND METHODS OF USE” (priority 2020, published 2023).

Assay [1] deals with OpaR. The assay can be described thus: E. coli bioassay expressing OpaR (IPTG-inducible plasmid). The format is cell-based, V. parahaemolyticus. As to conditions: 25 μM PTSP. An excerpt: (§1) We hypothesized that there were several possible reasons for the observed difference in PTSP inhibition in the various Vibrio species, including but not limited to: 1) differences in LuxR-inhibitor interaction(s), 2) differences in diffusion of the inhibitor across the membranes, or 3) stability of the inhibitor in the cell and/or cell culture. To examine PTSP activity in a common strain background, we cloned the luxR gene from each Vibrio species into a plasmid under control of an IPTG-inducible promoter and assayed the effect of PTSP against these proteins in the E. coli bioassay. […] We conclude that the differences in PTSP activity in Vibrio species is due to differences in interaction between PTSP and the LuxR-type protein in each Vibrio.
(§2) In E. coli assays expressing the five different LuxR-type proteins (luxR, smcR, opaR, vcpR, hapR), slight changes to the protocol were implemented. The luxR genes were cloned under control of the IPTG-inducible Ptac promoter in plasmid pMMB67EH-kanR. […] Strains expressing hapR or smcR required 50 μM IPTG to observe activation of the GFP reporter; IPTG was not added to strains expressing luxR, vcpR, or opaR.

Assay [2] concerns V. coralliilyticus protease activity. The assay is described as follows: Protease assay (azocasein) in V. coralliilyticus. As to conditions: 2.5 μM PTSP vs DMSO.
Assay [3] relates to PluxC-gfp reporter in V. parahaemolyticus. The assay is described as follows: PluxC-gfp reporter in V. parahaemolyticus strains. As to conditions: Vibrio parahaemolyticus.
Assay [4] has as its target LuxR (Vibrio harveyi, UniProt P21308). The assay can be described thus: E. coli bioassay expressing LuxR (IPTG-inducible plasmid). The format is cell-based, V. campbellii. As to conditions: 25 μM PTSP. Also on record: expressed in transfected cells; host or cells: E. coli DH10B with pMMB67EH-kanR derivative and pJV064.
Text: as §1, §2

Assay [5] deals with V. cholerae. The assay can be described thus: Quorum sensing reporter in V. cholerae. The settings on record: even at high concentrations.

LuxR, sequence (P21308 whole entry): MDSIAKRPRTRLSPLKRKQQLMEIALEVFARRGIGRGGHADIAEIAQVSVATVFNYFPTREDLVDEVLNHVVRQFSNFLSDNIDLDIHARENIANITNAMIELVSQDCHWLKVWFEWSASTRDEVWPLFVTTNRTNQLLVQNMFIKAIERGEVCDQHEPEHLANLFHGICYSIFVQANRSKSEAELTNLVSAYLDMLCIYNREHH

`O=S(=O)(c1cccs1)n1ccc(-c2ccccc2)n1` [Compound 10B]: in assay [1], the “Inhibition of OpaR in E. coli bioassay” value was “inhibited”. In addition, the “Protease activity of wild-type strain” value in assay [2] is “significantly reduced protease activity”. Further, the IC50 in assay [3] (read-out: IC50, V. parahaemolyticus RIMD2210633, luxCDABE reporter plasmid) is 280 nM; in assay [3] (read-out: Inhibition (IC50) of the PluxC-gfp reporter, Vpara 12-297/B), 320 nM; in assay [3] (read-out: Inhibition (IC50) of the PluxC-gfp reporter, Vpara D4) it was 270 nM; in assay [3] (read-out: Inhibition (IC50) of the PluxC-gfp reporter, Vpara RIMD 2210633), 170 nM. Besides, the “Inhibition of LuxR in E. coli bioassay” value in assay [4] is recorded as “inhibited”. Also, the “Inhibition in V. cholerae (in words)” value in assay [5] is given as “not active”.
